Laboratory results published in US9334267B2, “RAF inhibitor compounds” (Deciphera Pharmaceuticals, LLC, priority 2012, dated 2016).
pIC50: −log10 of the molar value.

What was measured:
[1] = tested on: Colo205 cells; assay: Colo-205 cell proliferation assay (resazurin); format: cell-based; details: Homo sapiens; Colo-205 cells, V600E mutation; read-out: Cell Proliferation Inhibition IC50, nM Colo-205
Experimental: (§1) Colo205 cells (catalog #HB-8307) are obtained from the American Type Culture Collection (ATCC, Manassas, Va.). Briefly, cells are grown in RPMI 1640 supplemented with 10% characterized fetal bovine serum (Invitrogen, Carlsbad, Calif.), 1 mM sodium pyruvate, and 1% Penicillin/Streptomycin/L-Glutamine at 37 degrees Celsius, 5% CO2, and 95% humidity. Cells are allowed to expand until reaching 30-60% confluency at which point they are subcultured or harvested for assay use. A serial dilution of test compound is dispensed into a 384-well black clear bottom plate in triplicate. One thousand two-hundred fifty cells are added per well in 50 μL complete growth medium in the 384-well plate. Plates are incubated for 67 hours at 37 degrees Celsius, 5% CO2, and 95% humidity. At the end of the incubation period, 10 μL of a 440 μM solution of resazurin (Sigma, St. Louis, Mo.) in PBS is added to each well of the plate and plates are incubated for an additional 5 hours at 37 degrees Celsius, 5% CO2, and 95% humidity. Plates are read on a Synergy2 reader (Biotek, Winooski, Vt.) using an excitation of 540 nm and an emission of 600 nm. Data is analyzed using Prism software (Graphpad, San Diego, Calif.) to calculate IC50 values.
(§2) The A375, HT-29, and Colo-205 cells (ATCC) harbor a V600E mutation.

[2] = tested on: A375res cells; assay: Proliferation assay in vemurafenib-resistant melanoma cells A375res; details: Homo sapiens, 72 h, read-out: absolute IC50 values
[3] = tested on: HCT-116 cells; assay: HCT-116 cell proliferation assay (resazurin); format: cell-based; details: Homo sapiens, K-Ras mutation B-Raf wild type, read-out: Cell Proliferation Inhibition IC50, nM HCT-116
[4] = tested on: Sk-Mel-2 cells; assay: SK-Mel-2 cell proliferation assay (resazurin); format: cell-based; details: Homo sapiens, N-Ras mutation B-Raf wild type, read-out: Cell Proliferation Inhibition IC50, nM SK-Mel-2
[5] = tested on: A375res cells
[6] = tested on: A375 cells; assay: A375 cell proliferation assay (CellTiter-Blue/resazurin); format: cell-based; details: Homo sapiens, A-375, V600E mutation, read-out: Cell Proliferation Inhibition IC50, nM A375
Experimental: as §1, with “A375” for “Colo205”, “#CRL-1619)” for “#HB-8307)”, “DMEM High Glucose” for “RPMI 1640”, “Calif.)” for “Calif.), 1 mM sodium pyruvate,”, “70-95%” for “30-60%”, “Six hundred twenty-five” for “One thousand two-hundred fifty”
as §2

SMILES	IC50 [1] [nM]	pIC50 [2]	IC50 [3] [nM]	IC50 [4] [nM]	IC50 shift A375 to A375res [5]	IC50 [6] [nM]
CCNc1ncc2cc(-c3cc(NC(=O)NCCC(C)(C)F)c(F)cc3C)c(C)nc2n1 [Example 26, 1-(5-(2-(Ethylamino)-7-methylpyrido[2,3-d]pyrimidin-6-yl)-2-fluoro-4-methylphenyl)-3-(3-fluoro-3-methylbutyl)urea]	100 to 1000	5.96 to 7.82	1000 to 10000	100 to 1000	0.6-1.9 fold	100 to 1000
Cc1cc(F)c(NC(=O)NCCC(C)(C)F)cc1-c1cc2cnc(N)nc2nc1C [Example 28, 1-(5-(2-Amino-7-methylpyrido[2,3-d]pyrimidin-6-yl)-2-fluoro-4-methylphenyl)-3-(3-fluoro-3-methylbutyl)urea]	100 to 1000	5.96 to 7.82	1000 to 10000	1000 to 10000	0.6-1.9 fold	1000 to 10000
Cc1cc(F)c(NC(=O)NCCC(C)(C)F)cc1-c1cc2cnc(NCCO)nc2nc1C [Example 29, 1-(3-Fluoro-3-methylbutyl)-3-(2-fluoro-5-(2-((2-hydroxyethyl)amino)-7-methylpyrido[2,3-d]pyrimidin-6-yl)-4-methylphenyl)urea]	100 to 1000	–	1000 to 10000	1000 to 10000	–	1000 to 10000
CNc1ncc2cc(-c3cc(NC(=O)NCCC4(C(F)(F)F)CC4)c(F)cc3C)c(C)nc2n1 [Example 30, 1-(2-Fluoro-4-methyl-5-(7-methyl-2-(methylamino)pyrido[2,3-d]pyrimidin-6-yl)phenyl)-3-(2-(1-(trifluoromethyl)cyclopropyl)ethyl)urea]	< 100	5.96 to 7.82	100 to 1000	100 to 1000	0.6-1.9 fold	< 100
COCCNc1ncc2cc(-c3cc(NC(=O)NC4CC(C)(C)C4)c(F)cc3C)c(C)nc2n1 [Example 31, 1-(3,3-Dimethylcyclobutyl)-3-(2-fluoro-5-(2-((2-methoxyethyl)amino)-7-methylpyrido[2,3-d]pyrimidin-6-yl)-4-methylphenyl)urea]	< 100	–	100 to 1000	100 to 1000	–	< 100
CNc1ncc2cc(-c3cc(NC(=O)NCCC(C)(C)C)c(F)cc3Br)c(C)nc2n1 [Example 32, 1-(4-Bromo-2-fluoro-5-(7-methyl-2-(methylamino)pyrido[2,3-d]pyrimidin-6-yl)phenyl)-3-(3,3-dimethylbutyl)urea]	< 100	–	100 to 1000	100 to 1000	–	< 100
CC(=O)Nc1ncc2cc(-c3cc(NC(=O)NCCC(C)(C)C)c(F)cc3C)c(C)nc2n1 [Example 33, N-(6-(5-(3-(3,3-Dimethylbutyl)ureido)-4-fluoro-2-methylphenyl)-7-methylpyrido[2,3-d]pyrimidin-2-yl)acetamide]	< 100	–	100 to 1000	100 to 1000	–	< 100
CNc1ncc2cc(-c3cc(NC(=O)NCCC(C)(C)C)c(F)cc3F)cnc2n1 [Example 36, 1-(2,4-Difluoro-5-(2-(methylamino)pyrido[2,3-d]pyrimidin-6-yl)phenyl)-3-(3,3-dimethylbutyl)urea methanesulfonate]	1000 to 10000	–	1000 to 10000	1000 to 10000	–	1000 to 10000

The next lines start with the values.

IC50 [1] [nM]	pIC50 [2]	IC50 [3] [nM]	IC50 [4] [nM]	IC50 shift A375 to A375res [5]	IC50 [6] [nM]	SMILES
< 100	5.96 to 7.82	100 to 1000	100 to 1000	0.6-1.9 fold	< 100	CNc1ncc2cc(-c3cc(NC(=O)NCC(O)C(C)(C)C)c(F)cc3C)c(C)nc2n1 (stereo not shown) [Example 15, 1-[2-Fluoro-4-methyl-5-(7-methyl-2-methylamino-pyrido[2,3-d]pyrimidin-6-yl)phenyl]-3-(2-hydroxy-3,3-dimethyl-butyl)urea]
< 100	5.96 to 7.82	100 to 1000	100 to 1000	0.6-1.9 fold	< 100	Cc1cc(F)c(NC(=O)NCCC(C)(C)C)cc1-c1cc2cnc(NCCO)nc2nc1C [Example 16, 1-(3,3-Dimethylbutyl)-3-[2-fluoro-5-[2-(2-hydroxyethylamino)-7-methyl-pyrido[2,3-d]pyrimidin-6-yl]-4-methyl-phenyl]urea]
< 100	5.96 to 7.82	100 to 1000	100 to 1000	0.6-1.9 fold	< 100	Cc1cc(F)c(NC(=O)NCCC(C)(C)C)cc1-c1cc2cnc(NCCN(C)C)nc2nc1C [Example 17, 1-[5-[2-(2-Dimethylaminoethylamino)-7-methyl-pyrido[2,3-d]pyrimidin-6-yl]-2-fluoro-4-methyl-phenyl]-3-(3,3-dimethylbutyl)urea]
< 100	5.96 to 7.82	100 to 1000	< 100	0.6-1.9 fold	< 100	Cc1cc(F)c(NC(=O)NCCC(C)(C)C)cc1-c1cc2cnc(N)nc2nc1C [Example 20, 1-(5-(2-Amino-7-methylpyrido[2,3-d]pyrimidin-6-yl)-2-fluoro-4-methylphenyl)-3-(3,3-dimethylbutyl)urea]
< 100	5.96 to 7.82	100 to 1000	100 to 1000	0.6-1.9 fold	< 100	Cc1cc(F)c(NC(=O)NCCC(C)(C)C)cc1-c1cc2cnc(NCCN3CCOCC3)nc2nc1C [Example 21, 1-(3,3-Dimethylbutyl)-3-(2-fluoro-4-methyl-5-(7-methyl-2-((2-morpholinoethyl)amino)pyrido[2,3-d]pyrimidin-6-yl)phenyl)ure]
< 100	–	100 to 1000	100 to 1000	–	< 100	Cc1cc(F)c(NC(=O)NCCC(C)(C)C)cc1-c1cc2cnc(NCc3cn(C)cn3)nc2nc1C [Example 22, 1-(3,3-Dimethylbutyl)-3-(2-fluoro-4-methyl-5-(7-methyl-2-(((1-methyl-1H-imidazol-4-yl)methyl)amino)pyrido[2,3-d]pyrimidin-6-yl)phenyl)urea]
< 100	–	100 to 1000	100 to 1000	–	100 to 1000	Cc1cc(F)c(NC(=O)NCCC2(C)CC2)cc1-c1cc2cnc(N)nc2nc1C [Example 23, 1-(5-(2-Amino-7-methylpyrido[2,3-d]pyrimidin-6-yl)-2-fluoro-4-methylphenyl)-3-(2-(1-methylcyclopropyl)ethyl)urea]
< 100	5.96 to 7.82	100 to 1000	100 to 1000	0.6-1.9 fold	< 100	CNc1ncc2cc(-c3cc(NC(=O)NCCC(C)(C)C(F)(F)F)c(F)cc3C)c(C)nc2n1 [Example 27, 1-(2-Fluoro-4-methyl-5-(7-methyl-2-(methylamino)pyrido[2,3-d]pyrimidin-6-yl)phenyl)-3-(4,4,4-trifluoro-3,3-dimethylbutyl)urea]
